Data reported in patent US8410118B2, “Inhibitors of fatty acid uptake and methods of use” (NUtech Ventures, priority 2009, dated 2013).
Like-named read-outs stand apart in the source and are kept apart here.

Experiments:
Caco-2 cells [1] = assay: Glucose analogue 2-NBDG uptake into Caco-2 cells; format: cell-based, human; conditions: differentiated Caco-2 cells
Procedure: To assess the impact of selected compounds upon glucose transport, Caco-2 cells were seeded and differentiated in 96-well collagen coated plates as detailed above and incubated for 1 h with compound diluted in PBS. […] Cells were incubated 30 min at 37° C., 5% CO2 to allow uptake. The medium was removed by aspiration and cells were rinsed once with 100 μL, of PBS.

HepG2 cells = assay: C1-BODIPY-C12 fatty acid uptake inhibition in HepG2 cells; format: cell-based
Procedure: (§1) This cell line is used as an in vitro model to predict human intestinal absorption and secretion [Hilgers et al., Pharm. […] For growth and differentiation, the BD Biosciences Intestinal Epithelium Differentiation Media Pack was used. Cells were plated in basal seeding medium at a density of 2.5×10^5 cells/cm^2 on a collagen-coated black-clear 96-well plate (BD Biosciences). After 72 h in culture, the basal seeding medium was removed and Entero-STIM medium was added to each well. Both media contained mito-serum extender. After another 24 h, cells were serum-starved for one hour in MEM without phenol red prior to performing the C1-BODIPY-C12 uptake assay. […] The cells were seeded in 96-well collagen coated plates at a seeding density of 2.5×10^5 cells/cm^2. […] Cells were subsequently maintained in DMEM and 10% FBS for an additional 3-6 days until fully differentiated. The number of cells per well in screening trials were determined using the FluoReporter® Blue Fluorometric DNA Quantitation Kit from Invitrogen.
(§2) Caco-2 cells were plated in basal seeding medium at a density of 2.5×10^5 cells/cm^2 in collagen-coated 96-well plates, and differentiated as detailed above. HepG2 cells were cultured in EMEM. Differentiated 3T3-L1 adipocytes were maintained in modified DMEM and 10% FBS. After another 24 h, cells were serum-starved for 1 h in MEM without phenol red prior to performing the C1-BODIPY-C12 transport assay [Sandoval et al., Arch. […] In a standard reaction, serum-free MEM was removed from the wells and 50 μL of the test compound in MEM (MEM alone for controls) were added to each well and incubation was continued for 1 h. […] Cell-associated fluorescence was measured as detailed above.

[2] = tested on: long chain acyl-CoA synthetase (Acsl); assay: Oleoyl-CoA synthetase (Acsl) activity in Caco-2 cell extracts after compound treatment; format: biochemical, human; conditions: Caco-2 cells pretreated 1 h; for oleoyl CoA synthetase activity: activity in total cell extracts
Procedure: Caco-2 cells were grown and differentiated in 60 mm collagen coated dishes (at a seeding density 2.5×10^5 cells/cm^2). Following growth and differentiation as detailed above, cells were serum starved for 1 h in MEM and then were treated for 1 h with selected compounds at specified final concentrations. The media was subsequently removed by aspiration and cells washed once with 5 mL PBS, trypsinized using standard procedures and collected by centrifugation. The cell pellet was resuspended in 1 mL STE lysis buffer (10 mM Tris-HCl (pH 8.0); 0.1M NaCl; 1 mM EDTA) and sonicated on ice for 2 min using 3 sec on/off pulses. […] In parallel experiments, untreated cells were used to prepare the cell extract for Acsl activity measurements where the compound of interest was added directly to the reaction mixture.
Acyl-CoA formed during the reaction remained in the aqueous fraction and was quantified by scintillation counting. Data were expressed as nmol oleoyl CoA formed/min/mg protein.

Caco-2 cells [3] = assay: MTT cytotoxicity assay in Caco-2 cells
Procedure: The MTT [3-(4,5-dimethylthiazol-2-yl)-2,5-diphenyltetrazolium bromide] assay was used to determine if compounds of interest were cytotoxic to Caco-2 cells [Mosmann, J. Immunol. […] Cells were cultured and differentiated as detailed above in collagen-coated 96-well plates. Cells were incubated at 37° C., 5% CO2 for at least one hour and up to 72 h in MEM containing the appropriate dilution of compound. Following this incubation period, the media with compound was removed and 110 μL, of MTT reagent (prepared in MEM (final concentration 0.45 mg/mL MTT)) was added. After a 3 h incubation period, the reaction was terminated by the addition of 150 μL, stop buffer (0.01N HCl in 10% SDS). The plates were incubated for 1 h at 37° C. to facilitate solubilization of formazan crystals; color development was read at A570.

Caco-2 cells [4] = assay: C1-BODIPY-C12 fatty acid uptake (transport) inhibition in Caco-2 cells; format: cell-based, human; conditions: for % Transport Standard Assay: compound at f.c. 40 μM, Caco-2 cells, control = 100, mean ± SD of 3-5 experiments
From the text: The Caco-2 cell line is derived from a human adenocarcinoma and is able to undergo differentiation into polarized epithelial cells that show a brush border phenotype and form well-developed and functional tight junction complexes [Fogh et al., J. Natl. Cancer Inst., 1977, 59:221-6; Grasset et al., Am. J. Physiol., 1984, 247:C260-7]. This cell line is used as an in vitro model to predict human intestinal absorption and secretion [Hilgers et al., Pharm. Res., 1990, 7:902-10]. Caco-2 cells were maintained in Earl's minimal essential medium (MEM) with 20% FBS in a 95% air 5% CO2 atmosphere at 37° C., as previously described [Sandoval et al., Arch. Biochem. Biophys., 2008, 477:363-71]. For growth and differentiation, the BD Biosciences Intestinal Epithelium Differentiation Media Pack was used. Cells were plated in basal seeding medium at a density of 2.5×10^5 cells/cm^2 on a collagen-coated black-clear 96-well plate (BD Biosciences). After 72 h in culture, the basal seeding medium was removed and Entero-STIM medium was added to each well. Both media contained mito-serum extender. After another 24 h, cells were serum-starved for one hour in MEM without phenol red prior to performing the C1-BODIPY-C12 uptake assay. HepG2 cells (ATCC, HB-8065) were cultured according to the ATCC protocol. The cells were seeded in 96-well collagen coated plates at a seeding density of 2.5×10^5 cells/cm^2. […] For differentiation into adipocytes, 3T3-L1 cells were treated with methylisobutylxanthine (0.5 mM), dexamethasone (1.0 μM), and insulin (1.75 μM) in DMEM and 10% FBS for 48 hours as described by Student et al. [Student et al., J. Biol. Chem., 1980, 255:4745-50]. After 48 hour incubation with differentiation medium, cells were treated with DMEM and 10% FBS supplemented with insulin (1.75 μM) for 48 hours. Cells were subsequently maintained in DMEM and 10% FBS for an additional 3-6 days until fully differentiated. The number of cells per well in screening trials were determined using the FluoReporter® Blue Fluorometric DNA Quantitation Kit from Invitrogen.
Caco-2 cells were plated in basal seeding medium at a density of 2.5×10^5 cells/cm^2 in collagen-coated 96-well plates, and differentiated as detailed above. HepG2 cells were cultured in EMEM. Differentiated 3T3-L1 adipocytes were maintained in modified DMEM and 10% FBS. After another 24 h, cells were serum-starved for 1 h in MEM without phenol red prior to performing the C1-BODIPY-C12 transport assay [Sandoval et al., Arch. Biochem. Biophys., 2008, 477:363-71; Arias-Barrau et al., Methods Mol. Biol., 2009, 580:233-49]. In a standard reaction, serum-free MEM was removed from the wells and 50 μL of the test compound in MEM (MEM alone for controls) were added to each well and incubation was continued for 1 h. Then 50 μL of C1-BODIPY-C12 mixture (final concentrations 5 μM C1-BODIPY-C12; 5 μM FAF BSA; 1.97 mM trypan blue) was added to each well, and uptake was allowed to take place for 15 min. Cell-associated fluorescence was measured as detailed above. […] Ligand competition curves were fit by nonlinear least-squares regression using one-site competition and dose-response models and Prism software (GraphPad software, Inc., San Diego, Calif.) in order to determine the compound concentration that reduced C1-BODIPY-C12 fluorescence readout by 50% (IC50). Ki values were calculated from the IC50 using the equation of Cheng and Prusoff as detailed in Li et al. [J. Lipid Res., 2008, 49:230-44] and KT values published by Sandoval et al. [Sandoval et al., Arch. Biochem. Biophys., 2008, 477:363-71].

3T3-L1 adipocytes = assay: C1-BODIPY-C12 fatty acid uptake inhibition in 3T3-L1 adipocytes; format: cell-based
Procedure: as §1, §2

[5] = C1-BODIPY-C12 uptake, average of 3 experiments ± SEM, read-out: Caco-2 IC50
[6] = Table 3, structurally related compounds in Caco-2 cells, read-out: IC50
[7] = Table 4, derived from laboratory data, read-out: IC50 (μM ± SE)
[8] = Homo sapiens, Caco-2, Table 4, derived from laboratory data, read-out: IC50 (μM ± SE)
[9] = Homo sapiens, Table 3, structurally related compounds in Caco-2 cells, read-out: IC50

**Q.** How did the “glucose (2-NBDG) transport” value (Caco-2 cells [1]; 50 μM) turn out when OCC(CCc1c[nH]c2ccccc12)c1c[nH]c2ccccc12 (stereo not shown) [Compound V-1, 2,4-bis(1H-indol-3-yl)butan-1-ol] was run?
**A.** reduced 2-NBDG transport slightly

**Q.** What about the IC50 (HepG2 cells; Homo sapiens, HepG2) of the same compound?
**A.** 84.1 ± 14.1 µM

**Q.** What about the “oleoyl CoA synthetase activity” value [2] of the same compound?
**A.** not reduced

**Q.** What about the “cellular toxicity (MTT, mitochondrial function)” value (shortened to “cellular toxicity”) (Caco-2 cells [3]; 100 μM for 24 h) of the same compound?
**A.** not toxic

**Q.** What about the IC50 (Caco-2 cells [4]; Homo sapiens, Caco-2, C1-BODIPY-C12 uptake, average of 3 experiments ± SEM, read-out: Caco-2 IC50) of the same compound?
**A.** 29.2 ± 3.64 µM

**Q.** And the “% Transport Standard Assay” value (Caco-2 cells [4])?
**A.** 52 ± 2%

**Q.** And the IC50 (3T3-L1 adipocytes; Mus musculus, 3T3-L1)?
**A.** 143 ± 22.4 µM

**Q.** Which results are given for COc1cc(/C=C2/SC(=S)N(c3cccc(Cl)c3)C2=O)cc(Br)c1O [Compound I-1, (5E)-5-[(3-bromo-4-hydroxy-5-methoxyphenyl)methylene]-3-(3-chloropheny1)-2-thioxothiazolidin-4-one]?
**A.** glucose (2-NBDG) transport (Caco-2 cells [1]; 20 μM): not affected; IC50 (HepG2 cells): 7.55 ± 1.23 µM; inhibition of oleoyl CoA synthetase activity ([2]; 50 μM (10 times the IC50)): about 50%; IC50 (Caco-2 cells [4]; [5]): 3.99 ± 0.32 µM; IC50 (Caco-2 cells [4]; [6]): 3.99 ± 0.32 µM; IC50 (Caco-2 cells [4]; [7]): 3.99 ± 0.32 µM; % Transport Standard Assay (Caco-2 cells [4]): 46 ± 3%; IC50 (3T3-L1 adipocytes): 231 ± 33.5 µM

**Q.** With O=C1Nc2ccccc2C12CN=C(c1ccccc1O)S2 (stereo not shown) [IV-2] as the compound, how does the IC50 (Caco-2 cells [4]; [6]) read?
**A.** 11.9 ± 1.43 µM

**Q.** What about the IC50 (Caco-2 cells [4]; [7]) of the same compound?
**A.** 11.9 ± 1.43 µM

**Q.** COc1cc(/C=C2/SC(=S)N(c3cccc(Cl)c3)C2=O)ccc1O [Compound I-2] was tested. Which IC50 (Caco-2 cells [4]; [8]) did it give?
**A.** 121 ± 25.4 µM

**Q.** And the IC50 (Caco-2 cells [4]; [9])?
**A.** 121 ± 25 µM

**Q.** What does the source list for O=C1Nc2ccc(Br)cc2C12CN=C(c1ccccc1)S2 (stereo not shown) [IV-3]?
**A.** IC50 (Caco-2 cells [4]; [6]): 4.84 ± 0.69 µM; IC50 (Caco-2 cells [4]; [7]): 4.84 ± 0.69 µM

**Q.** For Oc1c(C2=NCCNC(C(F)(F)F)=C2)ccc2ccccc12 [III-1, 2-[7-(trifluoromethyl)-2,3-dihydro-1H-1,4-diazepin-5-yl]naphthalen-1-ol], which “glucose (2-NBDG) transport” value (Caco-2 cells [1]; 20 μM) is on record?
**A.** not affected

**Q.** And the IC50 (HepG2 cells; Homo sapiens, HepG2)?
**A.** 6.72 ± 0.81 µM

**Q.** What about the “oleoyl CoA synthetase activity” value [2] of the same compound?
**A.** not reduced

**Q.** And the “cellular toxicity” value (Caco-2 cells [3]; 50 μM for 24 h)?
**A.** not toxic

**Q.** What about the IC50 (Caco-2 cells [4]; [8]) of the same compound?
**A.** 4.93 ± 0.4 µM

**Q.** And the “% Transport Standard Assay” value (Caco-2 cells [4])?
**A.** 35 ± 1%

**Q.** What about the IC50 (3T3-L1 adipocytes; Mus musculus, 3T3-L1) of the same compound?
**A.** 52.5 ± 6.7 µM

**Q.** How did the “glucose (2-NBDG) transport” value (Caco-2 cells [1]; 20 μM) turn out when O=C1C=CC=CC1=C1NNC2(S1)C(=O)Nc1ccc(Br)cc12 (stereo not shown) [IV-1, 5′-bromo-5-(6-oxocyclohexa-2,4-dien-1-ylidene)spiro[1,3,4-thiadiazolidine-2,3′-1H-indole]-2′-one] was run?
**A.** not affected

**Q.** And the “oleoyl CoA synthetase activity” value [2]?
**A.** not reduced

**Q.** What about the “cellular toxicity” value (Caco-2 cells [3]; 50 μM for 24 h) of the same compound?
**A.** not toxic

**Q.** And the IC50 (Caco-2 cells [4]; [8])?
**A.** 6.66 ± 0.64 µM

**Q.** What about the “% Transport Standard Assay” value (Caco-2 cells [4]) of the same compound?
**A.** 27 ± 1%

**Q.** How did the IC50 (Caco-2 cells [4]; [9]) turn out when COc1cc(/C=C2/SC(=S)N(c3cccc(F)c3)C2=O)cc(Br)c1O [Compound I-4] was run?
**A.** 4.7 ± 0.8 µM

**Q.** With O=c1cc(-c2ccc([N+](=O)[O-])cc2)[nH]c2c(-c3ccc(Cl)cc3)c(Cc3ccccc3)nn12 [II-1, 2-benzy1-3-(4-chloropheny1)-5-(4-nitropheny1)-1H-pyrazolo[5,1-b]pyrimidin-7-one] as the compound, how does the “glucose (2-NBDG) transport” value (Caco-2 cells [1]; 20 μM) read?
**A.** not affected

**Q.** What about the IC50 (HepG2 cells) of the same compound?
**A.** 10.2 ± 1.26 µM

**Q.** What about the “oleoyl CoA synthetase activity” value [2] of the same compound?
**A.** not reduced

**Q.** What about the “cellular toxicity” value (Caco-2 cells [3]; 50 μM for 24 h) of the same compound?
**A.** not toxic

**Q.** And the IC50 (Caco-2 cells [4]; [5])?
**A.** 6.34 ± 0.93 µM

**Q.** What about the IC50 (Caco-2 cells [4]; [6]) of the same compound?
**A.** 6.34 ± 0.93 µM

**Q.** What about the IC50 (Caco-2 cells [4]; [7]) of the same compound?
**A.** 6.34 ± 0.93 µM

**Q.** And the “% Transport Standard Assay” value (Caco-2 cells [4])?
**A.** 54 ± 1%

**Q.** And the IC50 (3T3-L1 adipocytes)?
**A.** 901 ± 205 µM
